The text below walks through data of patent US6316623A, “Ethylenediamine compound libraries” (priority 1998, dated 2001).

A word on the inhibition: it is the percentage by which the read-out fell short of the control.

For this test, the system named is E. coli imp-. Description: microbe, parasite or virus in culture. The class given is cell-based. Particulars: Escherichia coli, 24 h, read-out: % inhibition of bacterial growth in culture. As for the experimental part: In this assay, the strain E. coli imp-obtained from Spenser Bensen (Sampson, B. A., Misra, R. & Benson, S. A. (1989), Genetics, 122, 491-501, Identification and characterization of a new gene of Escherichia coli K-12 involved in outer membrane permeability) is used. To initiate the exponential phase of bacterial growth prior to the assay, a sample of bacteria was grown overnight at 37° C. in Luria broth and then used to reinoculate sample wells of 96-well microtiter plates. The assays were carried out in the 96-well microtiter plates in 150 μL volume with approximately 1×10^6 cells per well.
Bacteria in Luria broth (75 μL) was added to the compound mixtures in solution in 75 μL water in the individual well of the microtiter plate. Final concentrations of the compound mixtures were 25 μM, 10 μM and 1 μM. Each concentration of the compound mixtures were assayed in triplicate. The plates were incubated at 37° C. and growth monitored over a 24 hour period by measuring the optical density at 595 nm using a BioRad model 3550 UV microplate reader. The percentage of growth relative to a well containing no compound was determined. Ampicillin and tetracycline antibiotic positive controls were concurrently tested in each screening assay.
With `CC(C)(C)c1ccc(C(=O)N(CCNC(=O)c2cnccn2)CC2CCCN(C(=O)Cc3ccccc3)C2)cc1` (racemic) [compound 17957], the inhibition at 500 µM was 95.7%. Under `CC(C)(C)c1ccc(C(=O)N(CCNC(N)=O)CC2CCCN(C(=O)CO)C2)cc1` (racemic) [compound 17959] stands 39.5%.

As for `Cc1ccc(NC(=O)NCCN(C(=O)C2CC2)C2CCN(C(=O)Cc3ccccc3)C2)cc1` (racemic) [compound 17986], the inhibition at 500 µM was 35.2%. Under `CC(C)(C)c1ccc(C(=O)N(CCNC(=O)c2cnccn2)C2CCN(C(=O)Cc3ccccc3)C2)cc1` (racemic) [compound 17989] stands 38.5%; under `O=C(NCCN(C(=O)CO)C1CCN(C(=O)Cc2ccccc2)C1)c1cnccn1` (racemic) [compound 18005], 61.1%.

In the case of `CC(C)(C)c1ccc(C(=O)N(CCNC(=O)c2cnccn2)CC2CCN(C(=O)Cc3ccccc3)CC2)cc1` [compound 17925], the inhibition at 500 µM turned out to be 93.9%. `CC(C)(C)c1ccc(C(=O)N(CCNC(N)=O)CC2CCN(C(=O)CO)CC2)cc1` [compound 17927]: the inhibition at 500 µM is 96.3%.

As to `Cc1ccc(NC(=O)NCCN(CC2CCN(C(=O)CO)CC2)C(=O)c2ccc(N)cc2)cc1` [compound 17946], the inhibition at 500 µM is 98.7%.
